Among the data in patent publication US20140148476A1, “METHODS FOR TREATING OBESITY AND DISORDERS ASSOCIATED WITH HYPERLIPIDEMIA IN A MAMMAL” (AEGERION PHARMACEUTICALS, INC., priority 2009, published 2014) are adverse events, therapeutic effectiveness and hepatic triglyceride levels values, retold here.

“Also recorded” adds a separate entry of the source. Like-named read-outs stand apart in the source and are kept apart here.

For data set [1] the following is noted: cited from earlier work.
For data set [2] the following is noted: 25 mg/day, some patients, monotherapy, cited from earlier work.
Another data set has as its system DGAT −/−mice. Nature of the data set: Hepatic triglyceride levels in DGAT +/− and DGAT −/− mice dosed with AEGR-733. The data set is classed as in vivo. Particulars: DGAT −/− mice treated with AEGR-733 compared to DGAT +/− mice treated with AEGR-733; oral gavage for four successive days, chow diet, euthanized approximately 6 hours after the last dose. As for the experimental part: DGAT +/−mice or DGAT −/−mice (Jackson Laboratory, Me., U.S.A.) were fed a chow diet ad libitum. Mice were dosed by oral gavage for four successive days with AEGR-733 or with vehicle control at about 9:00 AM. AEGR-733 was dissolved in M-pyrol and diluted to appropriate concentration in vehicle. Final vehicle composition was 10% M-pyrol, 80% water, 5% cremophore, and 5% ethanol. Dosing volume was 200 μl. The mice were euthanized approximately 6 hours after the last dose. Blood was obtained at time of sacrifice by orbital eye bleed and plasma was made for determination of total cholesterol (TC), high density lipoprotein cholesterol (HDL-C), triglyceride (TG) and non-HDL-C.

The mark [3] stands for this setting: clinical studies, dosages of 80 mg/day or greater.

Consider `Cc1cc(C)c2c3ccccc3n(Cc3ccc([C@@H](C(=O)N[C@H](CO)c4ccccc4)C4CCCC4)cc3)c2n1` [implitapide, (2S)-2-cyclopentyl-2-[4-[(2,4-dimethyl-9H-pyrido[2,3-b]indol-9-yl)methyl]phenyl]-N-[(1S)-2-hydroxy-1-phenylethyl]ethanamide], for which the adverse events result in data set [1] (80 mg/day) was “gastrointestinal disorders, abnormalities in liver function and/or hepatic steatosis”; in data set [1] (160 mg/day) it was “gastrointestinal disorders, abnormalities in liver function and/or hepatic steatosis”; in data set [1] (setting [3]), “gastrointestinal disturbances, abnormalities in liver function, and hepatic steatosis”. The therapeutic effectiveness result in data set [1] (setting [3]) is “therapeutically effective”.
In the case of `O=C(NC1CCN(CCCCC2(C(=O)NCC(F)(F)F)c3ccccc3-c3ccccc32)CC1)c1ccccc1-c1ccc(C(F)(F)F)cc1` [AEGR-733, N-(2,2,2-Trifluorethyl)-9-[4-[4-[[[4′-(trifluoromethyl)[1,1′biphenyl]-2-Yl]carbonyl]amino]-1-piperidinyl]butyl]9H-fluorene-9-carboxamide], the adverse events entry was “gastrointestinal disorders, abnormalities in liver function and/or hepatic steatosis” in data set [2]; “gastrointestinal disturbances, abnormalities in liver function, and hepatic steatosis” in data set [2] (listed as BMS-201038). Moreover, in the data set with DGAT −/−mice, the hepatic triglyceride levels entry is “significantly reduced; also recorded: significantly lower”.
